Results taken from US20220221458A1, “NOROVIRUS-BINDING PEPTIDE” (Kao Corporation, priority 2019, published 2022).

System: norovirus VLPs (GII.4, GII.3, GII.17)
Test: In vitro selection by cDNA display against VLPs with appearance frequency analysis of sequences
Conditions: count among peptide aptamer sequences obtained after in vitro selection cycles (7 cycles GII.4, 5 cycles GII.3 and GII.17)
Experimental: The constructed cDNA display and VLPs were incubated in 100 μL of a dialysis selection buffer (20 mM HEPES (pH 7.4), 150 mM NaCl, and 0.05% s Tween 20) at the concentrations shown in Table 9 below at 25° C. for 30 minutes. Subsequently, the resultant was diluted to 1 mL with the dialysis selection buffer, and was put in Float-A-Lyzer G2 Dialysis Device CE, 1000kD MWCO (manufactured by Spectrum Laboratories, Inc.) and was dialyzed with 1 L of the dialysis selection buffer as the external solution at 25° C. During the dialysis, the external solution was replaced with new one 3 times every 2 hours, and the dialysis was performed overnight (for 8 hours) after the 4th replacement. The dialysis product was concentrated with Amicon Ultra 100K (manufactured by Merck Millipore S.A.S.) at 14,000×g for 5 minutes.
To an immunoplate (C-BOTTOM, CLEAR, MICROLON (registered trademark), HIGH BINDING, manufactured by Greiner Bio-One), 100 μL of 3 μg/mL GII.3 or GII.17 VLP solution was added and immobilization was performed at 4° C. overnight. Subsequently, the solution was discarded, and 200 μL of a blocking agent (EMD Millipore™ Blok™ NSB Blocking agents, Thermo Fisher Scientific) was added, followed by gently stirring at room temperature for 2 hours for blocking. On this occasion, wells not immobilizing the VLP were also subjected to similar blocking to be used in preselection.
The solution was discarded from the wells, the wells were washed with 200 μL of a wash buffer (10 mM Hepes (pH 7.4), 150 mM NaCl, and 0.05% Tween 20) three times, and 100 μL of cDNA display (constructed from 1.5 pmol of mRNA-linker) was then put in the wells not immobilizing the VLP, followed by gently stirring at room temperature for 30 minutes to perform preselection. Subsequently, the supernatant containing cDNA display that had not bound to the blocking agent was put in the wells immobilizing the VLP, followed by gently stirring at room temperature for 30 minutes to be bound to the VLP. The supernatant was discarded, washing with 100 μL of the wash buffer was performed four times, and 100 μL of a 5′ SDS solution was then added, followed by incubation at 50° C. for 15 minutes to elute the bound cDNA display.
Subsequently, the VLP-cDNA display complex obtained above was diluted to 100 μL with a dialysis selection buffer, and 10 μL of a coprecipitating agent (Quick-Precip Plus Solution, manufactured by EdgeBio) and 220 μL of 100% ethanol were added, followed by centrifugation at 20,000×g for 5 minutes. Subsequently, the supernatant was discarded, and 1 mL of 70, ethanol was added for rinsing. […] The PCR program was (a) 98° C. for 2 minutes, (b) 95° C. for 20 seconds, (c) 69° C. for 20 seconds, (d) 72° C. for 20 seconds (steps (b) to (d) were performed 25 cycles), and (e) 72° C. for 1 minute.
After the in vitro selection cycle (7 cycles for GII.4 and 5 cycles for GII.3 and GII.17 based on the libraries of 7 cycles obtained by GII.4 dialysis), a sequence library was prepared by the following method, and the sequence information was analyzed. The preparation of the sequence library and the sequencing were performed according to the 16S Metagenomic Sequencing Library Preparation protocol (manufactured by Illumina, Inc.).
The Fastq file of the obtained sequence was converted to a Fasta file, all of the obtained sequences were simultaneously translated from the first base of the start codon (ATG) at position 115 to the third base of the cysteine codon (TGC) at position 156 of the library sequence (SEQ ID NO: 279) using software MEGA.

Row | Substance | Appearance Frequency
1 | 1 (GRRYYI; Designed peptide) [compound 1] | 23
2 | 2 (CLSNLA; Designed peptide) [compound 2] | 21
3 | 3 (GHRLHS; Designed peptide) [compound 3] | 21
4 | 4 (HLRSIR; Designed peptide) [compound 4] | 18
5 | 5 (RCSHLR; Designed peptide) [compound 5] | 18
6 | 6 (FLDTLG; Designed peptide) [compound 6] | 17
7 | 7 (GWHETE; Designed peptide) [compound 7] | 17
8 | 8 (PCSYFS; Designed peptide) [compound 8] | 17
9 | 9 (GEHAHS; Designed peptide) [compound 9] | 15
10 | 10 (GHHVSV; Designed peptide) [compound 10] | 15
11 | 11 (GHPNPR; Designed peptide) [compound 11] | 15
12 | 12 (LNWSRS; Designed peptide) [compound 12] | 15
13 | 13 (SVQSWK; Designed peptide) [compound 13] | 15
14 | 14 (RSVRMH; Designed peptide) [compound 14] | 14
15 | 15 (SIGVDR; Designed peptide) [compound 15] | 14
16 | 16 (LSKHSR; Designed peptide) [compound 16] | 13
17 | 17 (RIGHMR; Designed peptide) [compound 17] | 13
18 | 18 (SRWCLS; Designed peptide) [compound 18] | 13
19 | 19 (CTYVVE; Designed peptide) [compound 19] | 12
20 | 20 (DYVFCG; Designed peptide) [compound 20] | 12
21 | 21 (GKFFCH; Designed peptide) [compound 21] | 12
22 | 22 (GLRYRE; Designed peptide) [compound 22] | 12
23 | 23 (LKASIR; Designed peptide) [compound 23] | 12
24 | 24 (LRSGVN; Designed peptide) [compound 24] | 12
25 | 25 (NLYDRF; Designed peptide) [compound 25] | 12
26 | 26 (TWDLTL; Designed peptide) [compound 26] | 12

Row | Substance | Appearance Frequency
27 | 27 (VHYRQT; Designed peptide) [compound 27] | 12
28 | 28 (VMMQCP; Designed peptide) [compound 28] | 12
29 | 29 (DLLNSK; Designed peptide) [compound 29] | 11
30 | 30 (DRYSAW; Designed peptide) [compound 30] | 11
31 | 31 (HIPSRH; Designed peptide) [compound 31] | 11
32 | 32 (IMSSIG; Designed peptide) [compound 32] | 11
33 | 33 (SRHCVP; Designed peptide) [compound 33] | 11
34 | 34 (SVHTHR; Designed peptide) [compound 34] | 11
35 | 35 (TKRQNL; Designed peptide) [compound 35] | 11
36 | 36 (VNGVSH; Designed peptide) [compound 36] | 11
37 | 37 (WEVALH; Designed peptide) [compound 37] | 11
38 | 38 (AGYPRY; Designed peptide) [compound 38] | 10
39 | 39 (EMSRHC; Designed peptide) [compound 39] | 10
40 | 40 (FPFGST; Designed peptide) [compound 40] | 10
41 | 41 (GNIPGH; Designed peptide) [compound 41] | 10
42 | 42 (GNSPYT; Designed peptide) [compound 42] | 10
43 | 43 (HIHGRE; Designed peptide) [compound 43] | 10
44 | 44 (QSSKKF; Designed peptide) [compound 44] | 10
45 | 45 (RPFTML; Designed peptide) [compound 45] | 10
46 | 46 (RVSLYD; Designed peptide) [compound 46] | 10
47 | 47 (TTSHFK; Designed peptide) [compound 47] | 10
48 | 48 (VDSTSV; Designed peptide) [compound 48] | 10
49 | 49 (VETDGH; Designed peptide) [compound 49] | 10
50 | 50 (VIEMLD; Designed peptide) [compound 50] | 10
51 | 51 (VMCPNR; Designed peptide) [compound 51] | 10
52 | 52 (VRYPEI; Designed peptide) [compound 52] | 10

Row | Substance | Appearance Frequency
53 | 53 (ACRSAF; Designed peptide) [compound 53] | 9
54 | 54 (FDHFYS; Designed peptide) [compound 54] | 9
55 | 55 (GTRHPS; Designed peptide) [compound 55] | 9
56 | 56 (HRRGPS; Designed peptide) [compound 56] | 9
57 | 57 (HVRPFY; Designed peptide) [compound 57] | 9
58 | 58 (KFSHRK; Designed peptide) [compound 58] | 9
59 | 59 (MAWIGS; Designed peptide) [compound 59] | 9
60 | 60 (NTHRHS; Designed peptide) [compound 60] | 9
61 | 61 (PVRALC; Designed peptide) [compound 61] | 9
62 | 62 (RALAKR; Designed peptide) [compound 62] | 9
63 | 63 (REESFS; Designed peptide) [compound 63] | 9
64 | 64 (RKLFRN; Designed peptide) [compound 64] | 9
65 | 65 (SGTMQE; Designed peptide) [compound 65] | 9
66 | 66 (SGYYRV; Designed peptide) [compound 66] | 9
67 | 67 (SKHLAG; Designed peptide) [compound 67] | 9
68 | 68 (SSPRSH; Designed peptide) [compound 68] | 9
69 | 70 (AVGCHV; Designed peptide) [compound 70] | 8
70 | 71 (CNLIAK; Designed peptide) [compound 71] | 8
71 | 72 (DFGQSS; Designed peptide) [compound 72] | 8
72 | 73 (EWAVSK; Designed peptide) [compound 73] | 8
73 | 74 (FPYARN; Designed peptide) [compound 74] | 8
74 | 75 (FTMHTN; Designed peptide) [compound 75] | 8
75 | 76 (GGSHST; Designed peptide) [compound 76] | 8
76 | 77 (GMLRFP; Designed peptide) [compound 77] | 8
77 | 78 (GQRLTV; Designed peptide) [compound 78] | 8
78 | 79 (GWYFHA; Designed peptide) [compound 79] | 8

Row | Substance | Appearance Frequency
79 | 80 (HICIRR; Designed peptide) [compound 80] | 8
80 | 81 (HRSNGH; Designed peptide) [compound 81] | 8
81 | 82 (ILGGHS; Designed peptide) [compound 82] | 8
82 | 83 (KTRAIN; Designed peptide) [compound 83] | 8
83 | 84 (LASSGH; Designed peptide) [compound 84] | 8
84 | 85 (LHMKPI; Designed peptide) [compound 85] | 8
85 | 86 (MSTHKV; Designed peptide) [compound 86] | 8
86 | 87 (SIESCL; Designed peptide) [compound 87] | 8
87 | 88 (SITVLY; Designed peptide) [compound 88] | 8
88 | 89 (SRSICS; Designed peptide) [compound 89] | 8
89 | 90 (SSCVMP; Designed peptide) [compound 90] | 8
90 | 91 (SSLALH; Designed peptide) [compound 91] | 8
91 | 92 (TGHIVW; Designed peptide) [compound 92] | 8
92 | 93 (THACAH; Designed peptide) [compound 93] | 8
93 | 94 (TVASNN; Designed peptide) [compound 94] | 8
94 | 95 (VGHVNW; Designed peptide) [compound 95] | 8
95 | 96 (VGRFPQ; Designed peptide) [compound 96] | 8
96 | 97 (VISLET; Designed peptide) [compound 97] | 8
97 | 98 (VVWFTD; Designed peptide) [compound 98] | 8
98 | 99 (VYIMNH; Designed peptide) [compound 99] | 8
99 | 100 (WDRPAF; Designed peptide) [compound 100] | 8
100 | 101 (YEGRND; Designed peptide) [compound 101] | 8
101 | 102 (AFTSHW; Designed peptide) [compound 102] | 7
102 | 103 (AHLHCD; Designed peptide) [compound 103] | 7
103 | 104 (DRVQSR; Designed peptide) [compound 104] | 7
104 | 105 (EEMIVS; Designed peptide) [compound 105] | 7
